Experimental findings from ChEMBL document CHEMBL1144521, “Design, synthesis and biological activity of selective and orally available TF/FVIIa complex inhibitors containing non-amidine P1 ligands” (Bioorg Med Chem, 2007) are described below.

Data set [1] relates to Plasma. Nature of the data set: Anticoagulant potency in human citreated plasma assessed as concentration required to double prothrombin time. Format: functional.
The target in a further data set is Trypsin (Homo sapiens, UniProt P07477+P07478+P35030). Nature of the data set: Inhibition of human trypsin by chromogenic assay. Format: protein assay.
The nature of data set [2]: Plasma concentration in ICR mouse at 300 mg/kg, po after 0.5 hrs by TF/FVIIa inhibition assay. Format: ADME, organism-based. The arrangement: dose 300 mg/kg, route oral.
The target in another data set is Coagulation factor X (Homo sapiens, UniProt P00742). Nature of the data set: Inhibition of human Fxa by chromogenic assay.
In the next data set the target is T1, Coagulation factor VII (Homo sapiens, UniProt P08709).
T1 sequence (P08709 whole entry): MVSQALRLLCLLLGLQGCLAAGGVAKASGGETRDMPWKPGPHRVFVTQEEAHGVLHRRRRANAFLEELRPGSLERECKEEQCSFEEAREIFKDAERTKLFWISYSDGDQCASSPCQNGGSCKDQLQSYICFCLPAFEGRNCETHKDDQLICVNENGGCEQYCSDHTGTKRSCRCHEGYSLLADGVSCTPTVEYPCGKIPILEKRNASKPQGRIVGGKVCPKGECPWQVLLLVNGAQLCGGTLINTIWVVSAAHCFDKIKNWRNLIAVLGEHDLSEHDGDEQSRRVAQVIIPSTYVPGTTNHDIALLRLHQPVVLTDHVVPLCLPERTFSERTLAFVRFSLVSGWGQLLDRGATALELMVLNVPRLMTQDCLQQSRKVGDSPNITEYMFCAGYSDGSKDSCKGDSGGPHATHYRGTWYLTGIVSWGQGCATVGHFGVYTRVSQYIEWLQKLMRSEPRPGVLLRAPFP
In words: Inhibition of human TF/FVIIa complex by chromogenic assay.

The next data set concerns the target Prothrombin (Homo sapiens, UniProt P00734). In words: Inhibition of human thrombin by chromogenic assay.
A short description of data set [3]: Plasma concentration in ICR mouse at 300 mg/kg, po after 2 hrs by TF/FVIIa inhibition assay. Format: ADME, organism-based. The arrangement: dose 300 mg/kg, route oral.
The subject of data set [4] is Plasma. Nature of the data set: Anticoagulant potency in human citreated plasma assessed as concentration required to double activated partial thromboplastin time. Format: functional.
The nature of data set [5]: Plasma concentration in ICR mouse at 100 mg/kg, po after 2 hrs by TF/FVIIa inhibition assay. Format: ADME, organism-based. The arrangement: dose 100 mg/kg, route oral.
The nature of data set [6]: Plasma concentration in ICR mouse at 100 mg/kg, po after 0.5 hrs by TF/FVIIa inhibition assay. Format: ADME, organism-based. The arrangement: dose 100 mg/kg, route oral.
Data set [7] relates to Cynomolgus monkey. In words: Effect on bleeding time in cynomolgus monkey at 3 mg/kg, iv. Format: functional, Macaca fascicularis.
Data set [8] relates to Cynomolgus monkey. In words: Effect on bleeding time in cynomolgus monkey at 10 mg/kg, iv. Format: functional, Macaca fascicularis.
Data set [9] has as its system Cynomolgus monkey. In words: Prolongation of prothrombin time in cynomolgus monkey citreated blood at 3 mg/kg, iv. Format: functional, Macaca fascicularis.
The test system of data set [10] is Cynomolgus monkey. Nature of the data set: Prolongation of prothrombin time in cynomolgus monkey citreated blood at 30 mg/kg, iv. Format: functional, Macaca fascicularis.
Data set [11] deals with Cynomolgus monkey. Nature of the data set: Effect on activated partial thromboplastin time in cynomolgus monkey citreated blood at 10 mg/kg, iv. Format: functional, Macaca fascicularis.
For data set [12], the system named is Cynomolgus monkey. In words: Effect on activated partial thromboplastin time in cynomolgus monkey citreated blood at 30 mg/kg, iv. Format: functional, Macaca fascicularis.
The subject of data set [13] is Cynomolgus monkey. In words: Effect on bleeding time in cynomolgus monkey at 30 mg/kg, iv. Format: functional, Macaca fascicularis.
Data set [14] can be described thus: Plasma concentration in ICR mouse at 100 mg/kg, po after 4 hrs by TF/FVIIa inhibition assay. Format: ADME, organism-based. The arrangement: dose 100 mg/kg, route oral.
Data set [15] relates to Cynomolgus monkey. Nature of the data set: Prolongation of prothrombin time in cynomolgus monkey citreated blood at 10 mg/kg, iv. Format: functional, Macaca fascicularis.
The subject of data set [16] is Cynomolgus monkey. Nature of the data set: Effect on activated partial thromboplastin time in cynomolgus monkey citreated blood at 3 mg/kg, iv. Format: functional, Macaca fascicularis.

Chain of Coagulation factor X (P00742 41-179 limits assumed): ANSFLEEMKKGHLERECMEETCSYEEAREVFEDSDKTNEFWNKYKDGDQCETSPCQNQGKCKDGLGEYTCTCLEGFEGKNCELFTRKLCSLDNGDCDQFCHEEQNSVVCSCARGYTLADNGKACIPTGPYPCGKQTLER
Chain of Coagulation factor X (P00742 235-488 limits assumed): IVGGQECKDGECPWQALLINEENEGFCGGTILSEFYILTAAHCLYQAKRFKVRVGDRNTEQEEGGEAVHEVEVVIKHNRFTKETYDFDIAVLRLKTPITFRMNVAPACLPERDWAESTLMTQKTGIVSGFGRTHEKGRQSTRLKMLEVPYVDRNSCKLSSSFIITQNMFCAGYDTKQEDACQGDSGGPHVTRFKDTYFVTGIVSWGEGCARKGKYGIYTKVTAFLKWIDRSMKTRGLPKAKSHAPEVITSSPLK

The term IC50 denotes the concentration that inhibits the measured activity by half. As to `CC(C)CNC(=O)c1ccc(-c2ccccc2C(=O)Nc2ccc(C(=N)N)cc2)c(C(=O)O)c1`, the Activity stood at 4.2 µM in the data set on Plasma [1] and 4.3 µM in the data set with Plasma [4]. The IC50 against Trypsin is 4.8 µM; against Coagulation factor X it was 0.88 µM; against Coagulation factor VII it was 0.089 µM; against Prothrombin, > 200 µM. This compound also had a concentration at 0.5 h in data set [2] of 300 ng/mL. Moreover, in [3], the concentration at 2 h is 160 ng/mL.

`CC(C)C[C@H](NC(=O)c1ccc(-c2ccccc2C(=O)Nc2cccc(C(N)=O)c2)c(C(=O)O)c1)C(=O)O` came in with an IC50 at Coagulation factor VII of 2.4 µM.

`CC(C)C[C@H](CO)NC(=O)c1ccc(-c2ccccc2C(=O)Nc2cccc(C(N)=O)c2)c(C(=O)O)c1` gave an IC50 at Coagulation factor VII of 191 µM.

On Coagulation factor VII, `CC(C)C[C@H](NC(=O)c1ccc(-c2ccccc2C(=O)Nc2cccc(C(N)=O)c2)c(C(=O)O)c1)C(N)=O` registered an IC50 of 4.2 µM.

The compound `CC(C)CCNC(=O)c1ccc(-c2ccccc2C(=O)Nc2cccc(C(N)=O)c2)c(C(=O)O)c1` showed an IC50 against Coagulation factor VII of 19 µM.

For `CNc1ccc(-c2ccc(C(=O)N[C@H](CO)CC(C)C)cc2C(=O)O)c(C(=O)Nc2cccc(C(N)=O)c2)c1`, at Coagulation factor VII, the IC50 was determined as 0.3 µM.

For `CCNc1ccc(-c2ccc(C(=O)N[C@@H](CC(C)C)C(N)=O)cc2C(=O)O)c(C(=O)Nc2cccc(C(N)=O)c2)c1`, the half-inhibitory concentration (IC50) on Coagulation factor VII was determined as 0.3 µM.

On to `CC(C)C[C@@H](CO)NC(=O)c1ccc(-c2ccccc2C(=O)Nc2cccc(C(N)=O)c2)c(C(=O)O)c1`, for which the IC50 at Coagulation factor VII was 8.5 µM.

On to `CNc1ccc(-c2ccc(C(=O)NCC(C)C)cc2C(=O)O)c(C(=O)Nc2cccc(C(N)=O)c2)c1`, for which the Activity with Plasma [1] is 150 µM; in the data set on Plasma [4] it was >300 µM. For the same compound, the IC50 was 4.8 µM against Trypsin, > 200 µM at Coagulation factor X, 0.69 µM against Coagulation factor VII and > 200 µM against Prothrombin.

In the case of `CC(C)C[C@H](NC(=O)c1ccc(-c2ccc(NC(C)C)cc2C(=O)Nc2cccc(C(N)=O)c2)c(C(=O)O)c1)C(N)=O`, the IC50 on Coagulation factor VII came out at 0.86 µM.

Consider `CC(C)C[C@H](NC(=O)c1ccc(-c2ccc(NC3CCCCC3)cc2C(=O)Nc2cccc(C(N)=O)c2)c(C(=O)O)c1)C(N)=O`, for which 91 µM corresponded to half-maximal inhibition against Coagulation factor VII (IC50).

In the case of `CNc1ccc(-c2ccc(C(=O)N[C@@H](CC(C)C)C(=O)O)cc2C(=O)O)c(C(=O)Nc2cccc(C(N)=O)c2)c1`, the Activity in the data set on Plasma [1] was 33 µM; with Plasma [4], >300 µM. Also, the IC50 on Trypsin is > 200 µM; against Coagulation factor X, > 200 µM; against Coagulation factor VII, 0.15 µM; at Prothrombin it was > 200 µM.

On to `CNc1ccc(-c2ccc(C(=O)N[C@@H](CC(C)C)C(N)=O)cc2C(=O)O)c(C(=O)Nc2cccc(C(N)=O)c2)c1`, for which the Activity was 20 µM in the data set on Plasma [1] and >300 µM with Plasma [4]. The IC50 against Trypsin was > 200 µM; against Coagulation factor X it was > 200 µM; at Coagulation factor VII it was 0.18 µM; at Prothrombin it was > 200 µM. Moreover, in data set [5], the concentration at 2 h is 210 ng/mL. This compound had a concentration at 0.5 h in data set [6] of 280 ng/mL.

On to `CNC(=O)[C@H](CC(C)C)NC(=O)c1ccc(-c2ccccc2C(=O)Nc2cccc(C(N)=O)c2)c(C(=O)O)c1`, for which, at Coagulation factor VII, the IC50 was determined as 4.2 µM.

The compound `CNc1ccc(-c2ccc(C(=O)N[C@H](CO)CC(C)C)cc2C(=O)O)c(C(=O)Nc2ccc(CN)cc2)c1` returned an IC50 at Coagulation factor VII of 1.3 µM.

The compound `CC(C)C[C@H](NC(=O)c1ccc(-c2ccccc2C(=O)Nc2cccc(C(N)=O)c2)c(C(=O)O)c1)C(=O)N(C)C` yielded an IC50 at Coagulation factor VII of 3.2 µM.

At Coagulation factor VII, `CC(C)CNC(=O)c1ccc(-c2ccccc2C(=O)Nc2cccc(C(N)=O)c2)c(C(=O)O)c1` gave an IC50 of 19 µM.

As for `CNc1ccc(-c2ccc(C(=O)N[C@@H](CC(C)C)C(N)=O)cc2C(=O)O)c(C(=O)Nc2ccc(CN)cc2)c1`, the Activity is 3.5 min with Cynomolgus monkey [7]; 47 µM in the data set with Plasma [1]; 2.7 min in the data set with Cynomolgus monkey [8]; 3.7 min in the data set with Cynomolgus monkey [13]; >300 µM in the data set on Plasma [4]. Further, the PT with Cynomolgus monkey [9] is 15.1 s; in the data set with Cynomolgus monkey [10], 38.4 s; with Cynomolgus monkey [15] it was 24.5 s. Moreover, the IC50 on Trypsin was > 200 µM; at Coagulation factor X it was > 200 µM; against Coagulation factor VII, 0.59 µM; at Prothrombin it was > 200 µM. The same compound gave a concentration at 0.5 h in [2] of 1800 ng/mL. For the same compound, the APTT in the data set with Cynomolgus monkey [11] is reported as 32.2 s; with Cynomolgus monkey [12], 35 s; in the data set on Cynomolgus monkey [16] it was 29.1 s. This compound also had a concentration at 4 h in [14] of 130 ng/mL.

As for `CCCCNc1ccc(-c2ccc(C(=O)N[C@@H](CC(C)C)C(N)=O)cc2C(=O)O)c(C(=O)Nc2cccc(C(N)=O)c2)c1`, the concentration for half-maximal inhibition (IC50) on Coagulation factor VII turned out to be 2.2 µM.
